Measured values from patent publication US20100068260A1, “Methods, Compositions and Device for Directed and Controlled Heating and Release of Agents” (priority 2007, published 2010).

Assays:
[1] = UV-Vis detection of chromophore release on heating liposomes (DPPC, DSPE-PEG2000, SATA-DSPE, PDP-PE); assay type: physicochemical; details: negative control without hydroxylamine, heated to 90° C.; FIG. 16
Procedure: To deprotect the thiol group on the liposomes 100 μL of 0.5 M hydroxylamine with 25 mM EDTA pH 7.3 in PBS buffer were added to 50 μL of PBS buffer containing the liposomes. The mixture was gently mixed over an hour. The procedure for deprotection was taken from Pierce.
50 μL of liposomes formed by the second method were diluted into 650 μL of PBS. UV-Vis spectra were taken of PBS as a blank, the liposomes in PBS, and hydroxylamine solution in PBS all at room temperature.
The liposomes were heated to 40 to 90° C. at 10 degree intervals for 10 minutes each, upon cooling to room temperature UV-Vis spectra was taken; the spectra are shown in FIG. 15.
As a negative control, the same procedure was performed on the same concentration of liposomes and PBS without the hydroxylamine solution. After heating the negative control to 90° C. DTT, which serves to cleave any disulfide bonds present, was added to visualize the amount of PDP-PE that is present in the liposomes, as shown in FIG. 16.

[2] = UV-Vis analysis of disulfide bond stability to heat and hydroxylamine; assay type: physicochemical; details: with and without hydroxylamine solution; room temperature to 90° C., 15 minutes each; FIG. 18-19
Procedure: The solution was heated for 15 minutes at each temperature and allowed to cool to room temp before the spectra were taken. ˜1 mg of DTT was added to the solution to cleave the remaining disulfide bonds.

reduction of PDP-PE with only heat [1] | reduction of disulfide on heating [2] | Compound
does not seem to be reduced |  | CCCCCCCCCCCCCCCC(=O)OC[C@H](COP(=O)(O)OCCNC(=O)CCSSc1ccccn1)OC(=O)CCCCCCCCCCCCCCC [PDP-PE, N-[3-(2-Pyridyldithio)propionyl]-1,2-dipalmitoyl-sn-glycero-3-phosphoethanolamine]
 | reduction is occurring | c1ccc(SSc2ccccn2)nc1 [2,2′ dithiodipyridine, 2,2′-dithiodipyridine]
